Measured values: US10512637B2, “Use of inhibitor of cystine-glutamate transporter” (CHINA MEDICAL UNIVERSITY, priority 2015, dated 2019)

Key:
[1] = test system: TUNEL-positive cells in frontal cortex; assay: TUNEL staining of brain after chronic alcohol exposure; type: in vivo, C57BL/6J mice; settings: WT mice; treatment for 14 days; sulfasalazine 15 mg/kg/day i.p., sorafenib 30 mg/kg i.p., regorafenib 30 mg/kg i.p.; compared to vehicle; FIG. 4B
Method: (§1) The concentration of alcohol was increased every fourteenth day. […] Intakes were recorded every day.

[2] = test system: wild type cortical cells; assay: Annexin V apoptosis assay in primary cortical cells exposed to alcohol or cocaine; type: cell-based, C57BL/6J mouse; settings: alcohol or cocaine incubation, 18 hours; sulfasalazine 500 μM, sorafenib 10 μM, regorafenib 10 μM; compared to vehicle (DMSO); FIG. 6
Method: Data are means±SD (n=3). *P<0.001 compared to vehicle group.
Primary cortical cells were prepared from cerebral cortices of wild-type C57BL/6J or xCT homozygous knockout (xCT KO) mouse embryos in embryonic day 17 as previously described in Shyu, W. C., et al., Secretoneurin promotes neuroprotection and neuronal plasticity via the Jak2/Stat3 pathway in murine models of stroke. J Clin Invest, 2008. 118(1): p. 133-48.
Annexin V staining was performed to determine cell apoptosis using the Annexin V-FITC Apoptosis Detection Kit (Sigma-Aldrich) for 10 minutes at room temperature according to the manufacturer's instructions, and then flow cytometric analysis was performed.

[3] = test system: alcohol-dependent mice; assay: Free-choice two-bottle drinking after chronic alcohol exposure; type: in vivo, C57BL/6J mice; settings: WT mice after chronic alcohol exposure; treatment for 7 days; sulfasalazine 15 mg/kg/day i.p., sorafenib 30 mg/kg i.p., regorafenib 30 mg/kg i.p.; compared to control vehicle (DMSO); FIG. 2B
Method: Data are means±SD (n=6-8). *P<0.0001 compared to water. ^#P<0.0001 compared to WT mice or vehicle treatment.
as §1

[4] = test system: cocaine-dependent WT mice; assay: Free-choice two-bottle drinking after chronic cocaine exposure; type: in vivo, C57BL/6J mice; settings: WT mice after chronic cocaine exposure (15 mg/kg i.p., 7 days); sulfasalazine 15 mg/kg/day i.p. for 6 days during free-choice drinking; compared to vehicle

Structure (SMILES): CNC(=O)c1cc(Oc2ccc(NC(=O)Nc3ccc(Cl)c(C(F)(F)F)c3)cc2)ccn1 [sorafenib]
- chronic alcohol exposure-induced apoptosis (TUNEL-positive cells) in brain [1]: inhibited apoptosis
- substance-induced apoptosis in cortical cells [2]: significantly inhibited substance-induced apoptosis
- daily alcohol consumption during free-choice drinking [3]: significantly attenuated the daily alcohol consumption

Structure (SMILES): O=C(O)c1cc(/N=N/c2ccc(S(=O)(=O)Nc3ccccn3)cc2)ccc1O [sulfasalazine]
- substance-induced apoptosis in cortical cells [2]: significantly inhibited substance-induced apoptosis
- daily alcohol consumption during free-choice drinking [3]: significantly attenuated the daily alcohol consumption
- cocaine preference and craving behaviours [4]: fully inhibited cocaine preference and craving behaviours

Structure (SMILES): CNC(=O)c1cc(Oc2ccc(NC(=O)Nc3ccc(Cl)c(C(F)(F)F)c3)c(F)c2)ccn1 [regorafenib]
- chronic alcohol exposure-induced apoptosis (TUNEL-positive cells) in brain [1]: inhibited apoptosis
- substance-induced apoptosis in cortical cells [2]: significantly inhibited substance-induced apoptosis
- daily alcohol consumption during free-choice drinking [3]: significantly attenuated the daily alcohol consumption
